According to publication PMC2873862 (Journal of neuroimmunology, 2009):

Legend:
Assay in all cases: radioligand displacement
Dopamine D2L = Dopamine D2L (Homo sapiens, UniProt P14416); format: binding
Serotonin 5-HT1A = Serotonin 5-HT1A (Homo sapiens, UniProt P08908); format: binding
Chemokine CCR5 = Chemokine CCR5 (Homo sapiens, UniProt P51681); format: binding
Endothelin ETA = Endothelin ETA (Homo sapiens, UniProt P25101); format: binding
Neurotensin NT1 = Neurotensin NT1 (Homo sapiens, UniProt P30989); format: binding
Neurotensin NT1, sequence (P30989 whole entry): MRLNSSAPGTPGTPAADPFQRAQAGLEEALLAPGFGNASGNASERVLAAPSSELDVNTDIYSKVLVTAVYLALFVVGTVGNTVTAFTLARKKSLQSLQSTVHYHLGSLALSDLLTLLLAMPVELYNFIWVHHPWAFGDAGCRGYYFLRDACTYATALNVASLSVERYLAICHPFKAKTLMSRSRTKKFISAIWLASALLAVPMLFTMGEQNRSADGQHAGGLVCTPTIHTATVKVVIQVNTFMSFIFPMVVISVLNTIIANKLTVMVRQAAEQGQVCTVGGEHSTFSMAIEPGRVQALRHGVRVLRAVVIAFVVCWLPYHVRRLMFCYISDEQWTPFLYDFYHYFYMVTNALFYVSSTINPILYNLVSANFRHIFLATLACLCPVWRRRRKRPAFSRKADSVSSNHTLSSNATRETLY

Tachykinin NK1 = Tachykinin NK1 (Homo sapiens, UniProt P25103); format: binding
Tachykinin NK1, sequence (P25103 whole entry): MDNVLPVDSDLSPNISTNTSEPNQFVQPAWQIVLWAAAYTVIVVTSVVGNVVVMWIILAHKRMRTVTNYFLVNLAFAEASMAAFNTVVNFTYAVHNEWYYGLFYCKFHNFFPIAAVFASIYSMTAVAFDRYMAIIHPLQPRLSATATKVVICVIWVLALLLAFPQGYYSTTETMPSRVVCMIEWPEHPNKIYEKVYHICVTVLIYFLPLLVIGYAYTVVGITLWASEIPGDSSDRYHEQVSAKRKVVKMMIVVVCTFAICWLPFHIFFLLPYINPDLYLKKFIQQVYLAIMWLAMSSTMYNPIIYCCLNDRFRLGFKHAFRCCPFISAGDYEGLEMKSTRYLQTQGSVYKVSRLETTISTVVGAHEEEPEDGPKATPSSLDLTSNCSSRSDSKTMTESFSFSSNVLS

Adrenergic α1D = Adrenergic α1D (Homo sapiens, UniProt P25100); format: binding
Histamine H1 = Histamine H1 (Homo sapiens, UniProt P35367); format: binding
Histamine H1, sequence (P35367 whole entry): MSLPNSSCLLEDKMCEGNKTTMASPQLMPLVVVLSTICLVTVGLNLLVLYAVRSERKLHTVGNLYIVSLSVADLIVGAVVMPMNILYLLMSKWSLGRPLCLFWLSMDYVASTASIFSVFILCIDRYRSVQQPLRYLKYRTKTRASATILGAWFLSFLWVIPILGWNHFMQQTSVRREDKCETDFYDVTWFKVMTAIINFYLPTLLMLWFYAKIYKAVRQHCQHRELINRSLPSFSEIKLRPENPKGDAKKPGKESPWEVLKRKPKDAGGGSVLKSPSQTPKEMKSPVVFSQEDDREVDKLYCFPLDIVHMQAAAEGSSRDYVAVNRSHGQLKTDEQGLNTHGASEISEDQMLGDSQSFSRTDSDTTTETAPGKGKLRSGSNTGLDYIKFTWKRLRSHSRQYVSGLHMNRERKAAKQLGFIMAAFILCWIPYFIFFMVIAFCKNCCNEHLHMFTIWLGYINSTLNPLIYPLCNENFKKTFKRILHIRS

Dopamine D3 = Dopamine D3 (Homo sapiens, UniProt P35462); format: binding
Bradykinin B1 = Bradykinin B1 (Homo sapiens, UniProt P46663); format: binding; settings: vs [3H]des Arg10 Kallidin; bound from single concentration […]
Cannabinoid CB2 = Cannabinoid CB2 (Homo sapiens, UniProt P34972); format: binding
Adenosine A1 = Adenosine A1 (Homo sapiens, UniProt P30542); format: binding
Opiate σ(OP1) = Opiate σ(OP1) (Homo sapiens, UniProt P41143); format: binding
Chemokine CCR1 = Chemokine CCR1 (Homo sapiens, UniProt P32246); format: binding
Serotonin 5-HT1_5A = Serotonin 5-HT1_5A (Homo sapiens, UniProt P47898); format: binding
Serotonin 5-HT1_5A, sequence (P47898 whole entry): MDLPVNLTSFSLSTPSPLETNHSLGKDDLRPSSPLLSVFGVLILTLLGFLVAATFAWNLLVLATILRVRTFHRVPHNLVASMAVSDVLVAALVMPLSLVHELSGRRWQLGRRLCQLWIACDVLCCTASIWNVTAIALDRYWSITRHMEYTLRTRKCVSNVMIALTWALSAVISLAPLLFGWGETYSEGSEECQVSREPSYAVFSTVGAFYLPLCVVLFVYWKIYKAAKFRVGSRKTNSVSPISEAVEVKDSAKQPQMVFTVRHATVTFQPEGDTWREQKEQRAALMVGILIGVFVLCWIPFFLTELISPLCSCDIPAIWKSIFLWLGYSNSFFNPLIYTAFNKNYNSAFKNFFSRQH

Adrenergic β1 = Adrenergic β1 (Homo sapiens, UniProt P08588); format: binding
Estrogen ERβ = Estrogen ERβ (Homo sapiens, UniProt Q92731)
Muscarinic M1 = Muscarinic M1 (Homo sapiens, UniProt P11229); format: binding
Somatostatin sst1 = Somatostatin sst1 (Homo sapiens, UniProt P30872)
Somatostatin sst1, sequence (P30872 whole entry): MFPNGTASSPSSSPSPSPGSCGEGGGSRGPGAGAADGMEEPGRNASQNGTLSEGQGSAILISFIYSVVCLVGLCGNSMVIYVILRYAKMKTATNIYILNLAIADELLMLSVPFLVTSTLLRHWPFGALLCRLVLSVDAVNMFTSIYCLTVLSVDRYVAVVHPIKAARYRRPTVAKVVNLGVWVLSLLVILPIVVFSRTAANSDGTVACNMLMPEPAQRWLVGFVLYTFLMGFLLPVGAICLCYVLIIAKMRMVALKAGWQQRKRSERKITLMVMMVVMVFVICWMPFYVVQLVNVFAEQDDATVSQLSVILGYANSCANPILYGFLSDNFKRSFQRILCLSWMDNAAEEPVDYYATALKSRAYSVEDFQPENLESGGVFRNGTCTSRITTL

Muscarinic M3 = Muscarinic M3 (Homo sapiens, UniProt P20309); format: binding
Muscarinic M3, sequence (P20309 whole entry): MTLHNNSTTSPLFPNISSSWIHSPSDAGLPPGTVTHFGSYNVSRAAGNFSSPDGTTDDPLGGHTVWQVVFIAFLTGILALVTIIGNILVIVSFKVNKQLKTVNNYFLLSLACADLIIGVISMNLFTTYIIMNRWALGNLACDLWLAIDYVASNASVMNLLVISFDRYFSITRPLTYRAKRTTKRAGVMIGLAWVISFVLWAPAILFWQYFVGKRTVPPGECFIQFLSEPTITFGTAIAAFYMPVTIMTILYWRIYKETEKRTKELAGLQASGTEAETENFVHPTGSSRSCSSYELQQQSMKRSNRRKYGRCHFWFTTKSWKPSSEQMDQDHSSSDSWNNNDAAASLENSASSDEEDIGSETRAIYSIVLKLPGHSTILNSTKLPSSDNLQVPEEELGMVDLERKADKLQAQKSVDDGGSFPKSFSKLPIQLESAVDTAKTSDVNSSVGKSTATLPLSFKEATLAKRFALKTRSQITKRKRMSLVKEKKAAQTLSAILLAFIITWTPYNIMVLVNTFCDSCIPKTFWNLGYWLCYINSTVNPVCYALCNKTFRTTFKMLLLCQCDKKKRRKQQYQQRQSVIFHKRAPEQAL

Leukotriene CysLT1 = Leukotriene CysLT1 (Homo sapiens, UniProt Q9Y271); format: binding
Leukotriene CysLT1, sequence (Q9Y271 whole entry): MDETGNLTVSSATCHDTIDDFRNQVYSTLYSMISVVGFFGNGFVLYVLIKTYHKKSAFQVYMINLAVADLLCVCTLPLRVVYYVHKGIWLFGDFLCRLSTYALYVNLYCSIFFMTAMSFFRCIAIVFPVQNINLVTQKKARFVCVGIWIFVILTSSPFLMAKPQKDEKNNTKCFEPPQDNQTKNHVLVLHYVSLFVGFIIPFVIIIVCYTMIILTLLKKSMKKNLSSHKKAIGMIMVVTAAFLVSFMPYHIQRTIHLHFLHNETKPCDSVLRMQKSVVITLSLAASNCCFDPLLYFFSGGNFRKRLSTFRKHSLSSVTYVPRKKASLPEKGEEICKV

Neuropeptide Y1 = Neuropeptide Y1 (Homo sapiens, UniProt P25929); format: binding
Neuropeptide Y1, sequence (P25929 whole entry): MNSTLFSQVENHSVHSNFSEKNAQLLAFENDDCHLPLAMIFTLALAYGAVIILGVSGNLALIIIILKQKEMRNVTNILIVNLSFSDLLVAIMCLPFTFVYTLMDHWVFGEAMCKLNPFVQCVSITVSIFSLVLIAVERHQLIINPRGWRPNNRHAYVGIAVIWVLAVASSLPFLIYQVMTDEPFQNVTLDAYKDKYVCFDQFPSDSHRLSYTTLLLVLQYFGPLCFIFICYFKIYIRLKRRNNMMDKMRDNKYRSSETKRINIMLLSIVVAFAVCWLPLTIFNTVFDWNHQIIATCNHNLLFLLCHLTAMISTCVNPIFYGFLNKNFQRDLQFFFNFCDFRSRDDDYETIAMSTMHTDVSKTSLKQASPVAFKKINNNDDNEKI

Angiotensin AT1 = Angiotensin AT1 (Homo sapiens, UniProt P30556); format: binding
Angiotensin AT1, sequence (P30556 whole entry): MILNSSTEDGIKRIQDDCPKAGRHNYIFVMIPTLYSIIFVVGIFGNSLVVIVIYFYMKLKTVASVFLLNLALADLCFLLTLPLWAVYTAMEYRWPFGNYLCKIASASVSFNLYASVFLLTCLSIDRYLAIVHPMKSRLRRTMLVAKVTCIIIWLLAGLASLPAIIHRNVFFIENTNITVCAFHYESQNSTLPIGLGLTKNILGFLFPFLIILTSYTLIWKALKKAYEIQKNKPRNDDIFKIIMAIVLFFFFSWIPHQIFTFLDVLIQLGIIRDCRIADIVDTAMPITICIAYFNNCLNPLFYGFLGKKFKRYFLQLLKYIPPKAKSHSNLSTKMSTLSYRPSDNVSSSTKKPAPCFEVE

Measured: IC50

Chemokine CCR5, sequence (P51681 whole entry): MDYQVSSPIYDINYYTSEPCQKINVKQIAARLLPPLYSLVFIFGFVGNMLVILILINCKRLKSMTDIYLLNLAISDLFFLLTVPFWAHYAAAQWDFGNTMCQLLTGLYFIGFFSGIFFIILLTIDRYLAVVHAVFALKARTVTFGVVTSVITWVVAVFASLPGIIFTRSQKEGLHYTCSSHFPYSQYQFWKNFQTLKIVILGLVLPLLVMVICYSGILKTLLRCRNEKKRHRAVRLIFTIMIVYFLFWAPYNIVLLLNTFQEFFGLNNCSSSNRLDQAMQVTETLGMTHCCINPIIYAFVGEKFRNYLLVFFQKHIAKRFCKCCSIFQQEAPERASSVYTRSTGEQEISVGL
Dopamine D2L, sequence (P14416 whole entry): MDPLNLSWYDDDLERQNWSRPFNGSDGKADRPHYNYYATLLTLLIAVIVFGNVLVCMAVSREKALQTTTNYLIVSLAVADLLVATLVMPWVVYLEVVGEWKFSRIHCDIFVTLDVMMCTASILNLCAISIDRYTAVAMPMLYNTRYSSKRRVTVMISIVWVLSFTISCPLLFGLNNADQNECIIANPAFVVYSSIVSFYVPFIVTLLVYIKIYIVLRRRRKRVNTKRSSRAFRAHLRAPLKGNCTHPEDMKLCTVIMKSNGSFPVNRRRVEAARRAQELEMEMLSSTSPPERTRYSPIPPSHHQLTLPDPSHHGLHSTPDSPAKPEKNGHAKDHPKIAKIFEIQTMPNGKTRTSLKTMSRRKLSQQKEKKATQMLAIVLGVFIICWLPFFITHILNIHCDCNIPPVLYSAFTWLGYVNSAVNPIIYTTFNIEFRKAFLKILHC
Endothelin ETA, sequence (P25101 21-427): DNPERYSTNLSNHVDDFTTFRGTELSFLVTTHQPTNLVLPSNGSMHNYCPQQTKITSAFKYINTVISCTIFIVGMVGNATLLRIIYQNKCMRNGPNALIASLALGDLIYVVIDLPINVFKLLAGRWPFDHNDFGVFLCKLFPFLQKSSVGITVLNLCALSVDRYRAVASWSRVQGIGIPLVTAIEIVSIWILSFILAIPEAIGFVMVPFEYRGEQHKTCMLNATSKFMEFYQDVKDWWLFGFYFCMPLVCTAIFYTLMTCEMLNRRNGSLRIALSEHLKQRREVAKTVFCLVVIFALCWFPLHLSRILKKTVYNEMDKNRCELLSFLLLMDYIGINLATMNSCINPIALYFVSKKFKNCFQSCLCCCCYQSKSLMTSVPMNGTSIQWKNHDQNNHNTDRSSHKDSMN

CC(=O)c1ccc2c(c1)C1C=CCC1C(c1cc3c(cc1Br)OCO3)N2 (centres unmarked) [G-1, 1-[4-(6-bromobenzo[1,3]dioxol-5-yl)-3a,4,5,9b-tetrahydro-3H-cyclopenta[c]quinolin-8-yl]-ethanone]
> 10 µM: all assays above
